PubChem BioAssay (NCI)
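A five-concentration, 48-hour dose response in 96-well plates underlies each endpoint, interpolated linearly between surrounding concentrations. Definition used: TGI = concentration required for complete inhibition of growth.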

Tests used:
Test in all cases: NCI-60 cell line screen, 48 h
SK-MEL-2 melanoma = test system: SK-MEL-2 melanoma
NCI-H226 lung = test system: NCI-H226 lung
SN12C renal = test system: SN12C renal
IGROV1 ovarian = test system: IGROV1 ovarian
MALME-3M melanoma = test system: MALME-3M melanoma
XF 498 CNS = test system: XF 498 CNS
A549 NSCLC = test system: A549 NSCLC
HCT-116 colon = test system: HCT-116 colon
OVCAR-5 ovarian = test system: OVCAR-5 ovarian
LOX IMVI melanoma = test system: LOX IMVI melanoma
K-562 leukemia = test system: K-562 leukemia
HCC-2998 colon = test system: HCC-2998 colon
HCT-15 colon = test system: HCT-15 colon
OVCAR-8 ovarian = test system: OVCAR-8 ovarian
COLO 205 colon = test system: COLO 205 colon
SK-OV-3 ovarian = test system: SK-OV-3 ovarian
SF-268 CNS = test system: SF-268 CNS
ACHN renal = test system: ACHN renal
LXFL 529 NSCLC = test system: LXFL 529 NSCLC
A498 renal = test system: A498 renal
HOP-92 NSCLC = test system: HOP-92 NSCLC
SK-MEL-5 melanoma = test system: SK-MEL-5 melanoma
786-0 renal = test system: 786-0 renal
NCI-H522 lung = test system: NCI-H522 lung
NCI-H460 lung = test system: NCI-H460 lung
CCRF-CEM leukemia = test system: CCRF-CEM leukemia
SK-MEL-28 melanoma = test system: SK-MEL-28 melanoma
DLD-1 colon = test system: DLD-1 colon
M19-MEL melanoma = test system: M19-MEL melanoma
OVCAR-4 ovarian = test system: OVCAR-4 ovarian
SF-295 CNS = test system: SF-295 CNS
SW-620 colon = test system: SW-620 colon
SNB-78 CNS = test system: SNB-78 CNS
MOLT-4 leukemia = test system: MOLT-4 leukemia
KM12 colon = test system: KM12 colon
NCI-H23 lung = test system: NCI-H23 lung
HOP-18 NSCLC = test system: HOP-18 NSCLC
CAKI-1 renal = test system: CAKI-1 renal
U251 CNS = test system: U251 CNS
SNB-75 CNS = test system: SNB-75 CNS
SF-539 CNS = test system: SF-539 CNS
HOP-62 NSCLC = test system: HOP-62 NSCLC
M14 melanoma = test system: M14 melanoma
EKVX NSCLC = test system: EKVX NSCLC
UO-31 renal = test system: UO-31 renal
DMS 114 small cell lung = test system: DMS 114 small cell lung
SR leukemia = test system: SR leukemia
RPMI-8226 leukemia = test system: RPMI-8226 leukemia
HT29 colon = test system: HT29 colon
UACC-257 melanoma = test system: UACC-257 melanoma
TK-10 renal = test system: TK-10 renal
HL-60(TB) leukemia = test system: HL-60(TB) leukemia
UACC-62 melanoma = test system: UACC-62 melanoma
RXF 393 renal = test system: RXF 393 renal
DMS 273 small cell lung = test system: DMS 273 small cell lung
KM20L2 colon = test system: KM20L2 colon
OVCAR-3 ovarian = test system: OVCAR-3 ovarian
SNB-19 CNS = test system: SNB-19 CNS
RXF-631 renal = test system: RXF-631 renal

Measured: TGI

O=C(N/N=C(/c1nc2ccc([N+](=O)[O-])cc2[nH]c1=O)C(O)c1ccc([N+](=O)[O-])cc1)c1ccncc1 (centres undefined)
not listed: RXF 393 renal | DMS 273 small cell lung | KM20L2 colon | OVCAR-3 ovarian | SNB-19 CNS | RXF-631 renal
> 100 µM: all other assays above

COc1cc(OC)c2c(=O)c3c([N+](=O)[O-])cccc3n(C)c2c1
not listed: XF 498 CNS | RXF-631 renal
> 100 µM: all other assays above

Clc1ccc(CCc2ccncn2)c(Cl)c1
51.2 µM: SK-MEL-5 melanoma
82.4 µM: RXF 393 renal
94 µM: UO-31 renal
not listed: XF 498 CNS | CCRF-CEM leukemia | SR leukemia
> 100 µM: all other assays above

CC1=C(C(=O)NCc2ccccc2)C(c2ccccc2C)C(C(=O)NCc2ccccc2)=C(C)N1
69.7 µM: HOP-62 NSCLC
67 µM: 786-0 renal
57.6 µM: SF-268 CNS
43.7 µM: RXF 393 renal
32.8 µM: OVCAR-8 ovarian
45.5 µM: OVCAR-3 ovarian
73 µM: HT29 colon
> 94.1 µM: SNB-75 CNS
36.6 µM: HCT-15 colon
> 95.5 µM: OVCAR-5 ovarian
99.6 µM: TK-10 renal
> 91.2 µM: HOP-18 NSCLC
> 67.3 µM: SK-MEL-28 melanoma
38.5 µM: SK-MEL-2 melanoma
59.3 µM: HL-60(TB) leukemia
51.3 µM: DLD-1 colon
38.8 µM: UACC-62 melanoma
> 67.7 µM: DMS 114 small cell lung
> 75.5 µM: KM20L2 colon
> 95.9 µM: LXFL 529 NSCLC
42.8 µM: M14 melanoma
48.8 µM: SF-539 CNS
35.7 µM: LOX IMVI melanoma
> 60 µM: HCC-2998 colon
> 75.8 µM: M19-MEL melanoma
68.3 µM: U251 CNS
> 76.4 µM: UACC-257 melanoma
58.8 µM: KM12 colon
> 93.3 µM: UO-31 renal
> 69.9 µM: DMS 273 small cell lung
> 84.6 µM: NCI-H226 lung
38.4 µM: ACHN renal
> 63 µM: SN12C renal
45.9 µM: NCI-H460 lung
81.1 µM: SR leukemia
> 85.5 µM: SF-295 CNS
> 72.3 µM: IGROV1 ovarian
37.6 µM: HCT-116 colon
> 86.8 µM: HOP-92 NSCLC
> 63.7 µM: OVCAR-4 ovarian
66.2 µM: NCI-H522 lung
> 93.6 µM: NCI-H23 lung
not listed: XF 498 CNS
> 100 µM: all other assays above
